Laboratory results from PMC8546149, “Antibiotic-chemoattractants enhance neutrophil clearance of Staphylococcus aureus” (Nature Communications, 2021).
Non-standard residues stand in square brackets, D forms with d. Residues, ends and D or L forms follow the SMILES beside them. *: point of attachment. Cha = N[C@@H](CC1CCCCC1)C(=O)O; For = O=C*

Columns and labels:
Format in all cases: cell-based
[1] = target: T1, human FPR1 (Homo sapiens, UniProt P21462); test: Calcium mobilization, CHO cells expressing FPR1; conditions: mean ± SEM; for Emax: normalized to ATP 100 µM, read-out: [Ca2+]i mobilization FPR1 Emax; for EC50: read-out: [Ca2+]i mobilization FPR1 pEC50 (converted)
T1 construct: expressed in transfected cells
T1 sequence (P21462 1-350): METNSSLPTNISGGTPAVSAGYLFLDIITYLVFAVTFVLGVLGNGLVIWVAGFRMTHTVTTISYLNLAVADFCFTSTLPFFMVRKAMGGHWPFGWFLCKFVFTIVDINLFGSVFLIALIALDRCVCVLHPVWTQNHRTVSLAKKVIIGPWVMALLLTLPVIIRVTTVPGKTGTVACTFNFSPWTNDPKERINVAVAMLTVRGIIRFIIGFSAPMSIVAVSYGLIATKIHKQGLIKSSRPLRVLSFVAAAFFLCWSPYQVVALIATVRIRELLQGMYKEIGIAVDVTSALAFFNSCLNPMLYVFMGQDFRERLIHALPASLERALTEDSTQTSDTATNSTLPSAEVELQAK
Method: (§1) FlpIn Chinese hamster ovary (CHO) cells stably expressing either the human FPR1 or FPR2. Both of the cell lines were cultured in Dulbecco’s modified eagle medium (DMEM), which contained 10% foetal bovine serum (FBS, JRH Biosciences) and 500 µg/mL of the antibiotic hygromycin-B (Invitrogen Inc). Cells were grown at 37 °C in a humidified incubator containing 5% CO2 as described previously. Cells were seeded into 96-well tissue culture plates (4 × 10^4 cells/well) and after 6–8 h, cells were washed with PBS twice (50 µL/well in each washing step) and then starved by incubating in 90 µL/well of serum-free DMEM overnight at 37 °C in 5% CO2 before assaying for ERK1/2 phosphorylation (pERK1/2) and intracellular Ca^2+ mobilization.
(§2) For the calcium mobilization assay, the cells were plated and starved in the same manner as the pERK1/2 assay, before washing the cells once in HEPES buffered saline (HBS) solution [150 mM NaCl, 1.3 mM CaCl2, 5 mM KCl, 1 mM MgSO4.7H2O, 1.5 mM NaHCO3, 10 mM HEPES, and 10 mM D-glucose; pH 7.4]. Then the cells were incubated at 37 °C under 5% CO2 condition with HBS containing 0.5% (w/v) bovine serum albumin (BSA), 4 mM probenecid and 1 µM Fluo-8-AM (Abcam) for 1 h. FlexStation three plate reader (Molecular Devices) were used to determine Ca^2+ mobilization. The peak change in fluorescence signal was normalized to the vehicle (HBS solution) and the cellular response mediated by the positive control, adenosine triphosphate (ATP, 100 µM), and fitted with nonlinear regression curve in GraphPad Prism 9.0.
(§3) Non-linear regression was performed using GraphPrism 9.0. […] Significance was determined using Student’s unpaired t test, with two-tailed p values of <0.05 considered statistically significant.

[2] = target: T2, human FPR2 (Homo sapiens, UniProt P25090); test: Calcium mobilization, CHO cells expressing FPR2; conditions: mean ± SEM; for Emax: normalized to ATP 100 µM, read-out: [Ca2+]i mobilization FPR2 Emax; for EC50: read-out: [Ca2+]i mobilization FPR2 pEC50 (converted)
T2 construct: expressed in transfected cells
T2 sequence (P25090 1-351): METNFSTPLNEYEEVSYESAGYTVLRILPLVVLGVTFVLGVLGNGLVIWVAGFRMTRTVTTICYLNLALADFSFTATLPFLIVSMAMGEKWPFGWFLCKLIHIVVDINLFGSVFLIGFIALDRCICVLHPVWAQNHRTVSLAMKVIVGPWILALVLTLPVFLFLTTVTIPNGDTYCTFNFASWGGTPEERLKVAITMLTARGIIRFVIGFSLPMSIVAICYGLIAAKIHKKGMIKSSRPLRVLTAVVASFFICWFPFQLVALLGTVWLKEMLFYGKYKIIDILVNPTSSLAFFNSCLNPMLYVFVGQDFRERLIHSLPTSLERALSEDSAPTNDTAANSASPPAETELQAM
Method: as §1, §2, §3

[3] = target: T2, human FPR2; test: ERK1/2 phosphorylation, CHO cells expressing FPR2; conditions: 5 min, mean ± SEM; for Emax: normalized to 10% FBS; for EC50: read-out: ERK1/2 phosphorylation FPR2 pEC50 (converted)
Method: as §1
(§4) A time course was used to assess peak pERK1/2 phosphorylation for all the compounds. The positive control of 10% FBS, and serum-free DMEM as vehicle control. […] All the compounds were tested with time points taken at 0, 5, 7, 10, 20, 30.
(§5) For both the time course and concentration-response curves, the stimulation was terminated by the rapid removal of serum-free DMEM with agonists and adding 100 μL/well of SureFire lysis buffer. The detection step was performed according to the manufacturer’s instructions (AlphaScreen detection kit, PerkinElmer Life and Analytical Science)[49]. Data were normalized to the vehicle (serum-free DMEM) and the response elicited by 10% FBS, with nonlinear regression performed using GraphPad Prism 9.0.
as §3

[4] = target: T1, human FPR1; test: ERK1/2 phosphorylation, CHO cells expressing FPR1; conditions: 5 min, mean ± SEM; for Emax: normalized to 10% FBS; for EC50: read-out: ERK1/2 phosphorylation FPR1 pEC50 (converted)
Method: as §1, §4, §5, §3

SMILES	Emax [1]	Emax [2]	Emax [3]	Emax [4]	EC50 [1]	EC50 [2]	EC50 [3]	EC50 [4]
CN[C@H](CC(C)C)C(=O)N[C@H]1C(=O)N[C@@H](CC(N)=O)C(=O)N[C@H]2C(=O)N[C@H]3C(=O)N[C@H](C(=O)N[C@H](C(=O)NCCCn4cc(C[C@H](NC(=O)CNC(=O)[C@H](Cc5ccccc5)NC(=O)[C@H](CC(C)C)NC(=O)[C@H](CCSC)NC=O)C(N)=O)nn4)c4cc(O)cc(O)c4-c4cc3ccc4O)[C@H](O)c3ccc(c(Cl)c3)Oc3cc2cc(c3O[C@@H]2O[C@H](CO)[C@@H](O)[C@H](O)[C@H]2O[C@H]2C[C@](C)(N)[C@H](O)[C@H](C)O2)Oc2ccc(cc2Cl)[C@H]1O [C1, Van-C(fMLFG-Tz)]	34 ± 8%	45 ± 10%	99 ± 9%	77 ± 8%				
CN[C@H](CC(C)C)C(=O)N[C@H]1C(=O)N[C@@H](CC(N)=O)C(=O)N[C@H]2C(=O)N[C@H]3C(=O)N[C@H](C(=O)N[C@H](C(=O)NCCCn4cc(C[C@H](NC(=O)CNC(=O)[C@H](Cc5ccccc5)NC(=O)[C@H](CC5CCCCC5)NC(=O)[C@H](CCSC)NC=O)C(N)=O)nn4)c4cc(O)cc(O)c4-c4cc3ccc4O)[C@H](O)c3ccc(c(Cl)c3)Oc3cc2cc(c3O[C@@H]2O[C@H](CO)[C@@H](O)[C@H](O)[C@H]2O[C@H]2C[C@](C)(N)[C@H](O)[C@H](C)O2)Oc2ccc(cc2Cl)[C@H]1O [C11, Van-C(fM-Cha-FG-Tz)]	24 ± 3%	27 ± 3%	84 ± 4%	83 ± 3%				

The remaining lines, values ahead:

Emax [1]	Emax [2]	Emax [3]	Emax [4]	EC50 [1]	EC50 [2]	EC50 [3]	EC50 [4]	SMILES
27 ± 4%	34 ± 7%	82 ± 7%	86 ± 8%	0.00676 µM	1.35 µM	2.88 µM	0.00251 µM	CSCC[C@H](NC=O)C(=O)N[C@@H](CC(C)C)C(=O)N[C@@H](Cc1ccccc1)C(=O)NCC(N)=O [FP1, fMLFG-NH2] (For-MLFG-NH2)
27 ± 4%	43 ± 13%	81 ± 9%	90 ± 8%	0.00955 µM	1.32 µM	1.86 µM	0.00219 µM	CSCC[C@H](NC=O)C(=O)N[C@@H](CC1CCCCC1)C(=O)N[C@@H](Cc1ccccc1)C(=O)NCC(N)=O [FP11, fM-Cha-FG-NH2] (For-M[Cha]FG-NH2)
	18 ± 4%	99 ± 27%						CSCC[C@H](NC=O)C(=O)N[C@@H](CC(C)C)C(=O)N[C@@H](Cc1ccccc1)C(=O)O [fMLF, N-formyl-Met-Leu-Phe, reference compound]
